From patent US20080279961A1, “TELOMERE TARGETING AGENTS AS STEM CELLS DIRECTED TREATMENTS” (priority 2007, published 2008)

What was measured:
MCF-7 cells = experiment: human tumor stem cell assay (HTCA)/clonogenic assay; assay type: cell-based
Protocol: (§1) In human tumor stem cell assay (HTCA)/clonogenic assay, single cell suspensions from in vivo studies above were washed in medium and passed through sieves and the resulting single cell suspensions seeded into soft agar (n=3 tumors per group) as described by us before (Fiebig et al., 2004). Single cell suspensions of cell lines were prepared by trypsinization from cells growing as monolayers on plastic. Briefly, 5,000 (HEK293T cells), 10,000 (PC3, MCF-7 and UXF1138L cells) or 50,000 (UXF1138L tumor tissue) vital cells were added to 0.2 ml Iscove's medium/20% fetal bovine serum/0.05% gentamycin containing 0.4% agar and plated on top of a base layer consisting of 0.2 ml medium with 0.75% agar. The next day, the agar layers were fed with Isocve's medium and cultures incubated at 37° C., 7% CO2 for approximately 11 days. Vital colonies were stained with 2-(4-iodophenyl)-3-(4-nitrophenyl)-5-phenyltetrazolium chloride (1 mg/ml) 24 hrs before evaluation, and colonies >70 μm were counted with an automated image analysis system (Omincon FAS IV, BIOSYS GmbH, Karben, Germany). Drug effect was assessed as growth inhibitory concentrations 50 and 70% (IC50, IC70). Methylcellulose was used to grow cord blood stem cells instead of soft agar. The seeding density was 20,000 cells/well. Stem cell growth factor supplemented and optimized methylcellulose (Methocult H4434) was purchased from Stem Cell Technologies (Vancouver, CA). Methylcellulose lacking growth factors was used as negative growth control. Statistical significance between treatment groups was evaluated by using the Student T-test.
(§2) The growth inhibitory activity of RHPS4 in human bulk tumor cells have been compared, by MTT assay, against RHPS4 activity in tumor cells grown as colonies in the clonogenic assay, also termed the human tumor stem cell assay (HTCA) (FIG. 2A-B). HEK293T human embryonic kidney cells grown in the HTCA, and cord blood cells cultured in methylcellulose were also treated with RHPS4 (FIG. 2C). The MTT assay is a 5 day proliferation test measuring effects on a morphologically heterogeneous, differentiated cell population (bulk cells), whereas the HTCA and methylcellulose assays are longer term (10-15 day) tests in which only a very small fraction of a bulk culture (˜0.1-1%) will grow as colonies. Cells growing anchorage-independently as colonies in a semi-solid matrix are considered to be pluripotent stem cells (Hamburger & Salmon, 1977; Locke et al., 2005; Fiebig et al. 2004). […] Similar observations were made with the breast cancer cell line MCF-7 (shown in FIG. 2B, HTCA IC50=0.04 microM; bulk cell IC50=2 microM).

PC3 cells = experiment: as above; assay type: cell-based; settings: PC3 colonies; read-out: IC50 colony growth in the HTCA
Protocol: as §1, §2

HEK293T cells = experiment: MTT proliferation assay (monolayer); assay type: cell-based, human
Protocol: To assess RHPS4 effects on normal stem cells, the human embryonic kidney cell line HEK293T was exposed to drug in the MTT and HTCA assays, and tested RHPS4 effects on colony forming units of the mononuclear cell fraction of human cord blood in methyl cellulose (FIG. 2C). The cord blood colony assay was performed with and without colony stimulating growth factors, only methylcellulose containing growth factors grew colonies. […] Additionally, in normal cell types as compared to tumor cells, low and pharmacodynamically relevant concentrations of RHPS4 (0.01 to 1 microM) did induce colony formation (FIG. 2C). To assure that the induction of colony growth by RHPS4 in normal stem cells is reproducible, cord blood from three different individuals and HEK293T cells from different passages were used. Data shown in FIG. 2C represent the mean and standard deviation from three independent experiments. […] However, the plating efficiency (actual number of colonies growing per total number of cells seeded) varied among the experiments and therefore the results are shown as % of control growth. E.g. HEK293T control colony growth ranged from a mean number of 54 to 463 colonies per well, but the least percentage (cut-off level) of growth induction by RHPS4 observed in either, the individual HEK293T or the cord blood experiments, was 150%. […]

COS(=O)(=O)[O-].Cc1cc2c3c([n+](C)c4ccc(F)cc4c3c1)-c1cc(F)ccc1N2C [RHPS4, 3,11-difluoro-6,8,13-trimethyl-8H-quino[4,3,2-kl]acridinium methosulfate]
activity in colonies (HTCA) versus whole cell populations (MCF-7 cells; MCF-7): two log-fold | IC50 (MCF-7 cells; MCF-7 colonies, read-out: IC50 colony growth in the HTCA): 40 nM | IC50 (PC3 cells): 30 nM | bulk cell growth, % of control (HEK293T cells; 1 mircoM RHPS4, HEK293T monolayer): 60% | induction of growth in MTT assay (HEK293T cells; eight dose levels 0.001-50 mircoM): no induction of growth
